Test results published in patent publication US7169604B1, “Method for PR-39 peptide mediated selective inhibition of IκBα degradation” (Beth Israel Deaconess Medical Center, priority 1998, dated 2007).
Ends that are not written are not given here.

Experiments:
[1] = tested on: U937 cells; assay: Proteasome-dependent degradation of total cellular proteins (35S Met pulse-chase); type: cell-based, human; settings: 10 μM, 1 hr chase, chloroquin 45 μM, after 16 hr metabolic labeling
Method: Therefore the extent of degradation of long-lived cell proteins before or following exposure was compared to either PR-39 or MG132. The result is given by FIG. 3A.
Exponentially proliferating U937 cells were grown in 10% FBS-RPMI 1640 methionine-free medium supplemented with 200 μCi ^35S Met for 16 hr. Cells were then washed with complete RPMI 1640 medium 3 times and cultured in 10% FBS-RPMI (chase) in the presence of 10 μM of either PR-39 or MG132 or an equal volume of PBS. Chloroquin (45 μM) was added to all cultures to prevent the lysosomal protein degradation. 1 hr later the cells were lysed, and TCA soluble ^35S counts were measured in a liquid scintillation counter (LKB). All experiments were carried out in triplicate and repeated three times. The data are shown as mean±standard deviation.

[2] = tested on: NFκB; assay: NFκB-dependent luciferase reporter (pNFκB-Luc) in ECV304 cells; type: cell-based, human; settings: 45 min pretreatment with 10 nM, TNF-α 1 ng/ml
Method: The results are presented by FIG. 2A.
The effect of PR-39-mediated inhibition of IκBα degradation on NFκB-dependent transcription was tested in ECV304 cells transiently transfected with pNFκB-Luc reporter vector.

[3] = tested on: p21, cyclin E and c-fos; assay: Levels of proteasome-regulated proteins by Western blotting; type: cell-based, human
Method: This is shown by FIG. 3C.
The level of proteasome-regulated cell cycle repressor p21, cyclin E and c-fos proteins were determined by Western blotting in U937 cells pretreated with various amounts of PR-39 and then exposed to TNF-α (1 ng/ml).

[4] = target: T1, IκBα-VCP (Homo sapiens, UniProt P25963+P55072); assay: IκBα-VCP binding (IκBα immunoprecipitation, anti-VCP Western blot) in ECV304 cells; type: cell-based; settings: wild type ECV304 cells, 10 μM pretreatment, TNF-α 1 ng/ml
T1 construct: endogenous in cells; host or cells: wild type ECV304
T1 sequence (P25963 whole entry): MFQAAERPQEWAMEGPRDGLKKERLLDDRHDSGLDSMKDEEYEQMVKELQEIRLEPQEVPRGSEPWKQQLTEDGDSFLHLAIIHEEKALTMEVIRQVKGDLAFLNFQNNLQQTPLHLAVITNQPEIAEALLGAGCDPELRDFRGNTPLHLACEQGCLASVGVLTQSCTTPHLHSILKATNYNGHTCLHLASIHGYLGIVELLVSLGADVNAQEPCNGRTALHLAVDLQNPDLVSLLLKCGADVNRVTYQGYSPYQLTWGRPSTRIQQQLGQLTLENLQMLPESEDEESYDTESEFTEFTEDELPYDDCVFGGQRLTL
T1 sequence (P55072 2-806 limits assumed): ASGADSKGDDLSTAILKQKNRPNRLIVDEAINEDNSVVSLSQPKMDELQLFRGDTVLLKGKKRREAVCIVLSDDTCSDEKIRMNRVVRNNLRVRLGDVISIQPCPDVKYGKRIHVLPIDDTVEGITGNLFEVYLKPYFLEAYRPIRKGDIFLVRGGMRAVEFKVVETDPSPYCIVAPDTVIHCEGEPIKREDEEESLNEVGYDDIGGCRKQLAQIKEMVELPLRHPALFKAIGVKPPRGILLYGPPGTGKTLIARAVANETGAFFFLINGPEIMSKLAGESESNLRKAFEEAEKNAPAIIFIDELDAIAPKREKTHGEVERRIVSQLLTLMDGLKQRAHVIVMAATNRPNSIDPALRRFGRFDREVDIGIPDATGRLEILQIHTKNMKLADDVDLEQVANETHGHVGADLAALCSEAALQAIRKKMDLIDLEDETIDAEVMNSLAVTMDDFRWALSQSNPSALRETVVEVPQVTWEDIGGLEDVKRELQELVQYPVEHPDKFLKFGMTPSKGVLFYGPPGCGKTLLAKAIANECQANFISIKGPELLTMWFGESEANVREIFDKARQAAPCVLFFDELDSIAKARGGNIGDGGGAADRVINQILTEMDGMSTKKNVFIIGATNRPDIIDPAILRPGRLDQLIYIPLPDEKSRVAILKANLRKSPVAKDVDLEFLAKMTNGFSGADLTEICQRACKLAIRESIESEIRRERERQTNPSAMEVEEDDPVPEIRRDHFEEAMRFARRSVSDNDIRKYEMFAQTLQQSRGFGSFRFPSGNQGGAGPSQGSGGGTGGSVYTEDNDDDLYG
Description: Wild type ECV304 cells (treated as described in FIG. 4C) were subjected to immunoprecipitation with anti-IκBα antibody (IκBα-IP) followed by Western blotting with anti-VCP-3 antibody (1:3000, dilution; a kind gift of Dr. C. C. Li (NIH)). Note the presence of 90 kD VCP band in the presence or absence of PR-39 treatment.
Pretreatment with PR-39 increased the amount of VCP in the IκBα immunoprecipitate (FIG. 4D) as would be expected given the increased amount of ubiquitinated forms of IκBα in the PR-39-treated cells.

[5] = tested on: IκBα; assay: IκBα degradation in mouse pancreas, caerulein-induced acute pancreatitis; type: in vivo; settings: 10 mg/kg i.v. 1 hour before caerulein 50 μg/kg i.v.; 30 min later
Method: Male mice weighing 20-25 g (ICR, Charles River Laboratories, Wilmington, Mass.) were pretreated with PR-39 (10 mg/kg, i.v.) or physiological saline 1 hour before injecting 50 μg/kg i.v. of caerulein (Research Plus, Bayonne, N.J.) to induce acute pancreatitis. 30 min later the animals were sacrificed in a CO2 chamber and a 75-100 mg piece of pancreas was removed for Western blotting and NFκB gel shift assays.
As empirically shown, induction of acute pancreatitis by treatment with the cholecystokinin analog caerulein leads to the prompt disappearance of IκBα (FIG. 2B) and activation of NFκB-dependent transcription in the pancreas (FIG. 2C).

[6] = tested on: IκBα; assay: IκBα phosphorylation in U937 cell culture; type: cell-based, human; settings: U937 cells, 10 μM pretreatment, TNFα 1 ng/ml, 45 min
Method: To explore potential mechanisms of this selective inhibition, the effect of peptide administration on IκBα phosphorylation and ubiquitination was studied. It is known that TNF-α treatment leads to phosphorylation of IκBα, which is required for its subsequent ubiquitination. The result is indicated by FIG. 4A.
U937 cells cultured in the absence (−) or presence (+) of pretreatment with 10 μM PR-39 were exposed to 1 ng/ml TNFα. 45 min later the cells were lysed and subjected to SDS-PAGE and Western blotting with anti-IκBα antibody. Note the increased amount of the typical-appearing phosphorylated IκKBα band in PR-39 treated cells.

[7] = target: T2, 20S proteasome (Homo sapiens, UniProt P25788); assay: Co-immunoprecipitation of PR-39 and 20S subunits in ECV cells; type: binding; settings: ECV304 cells transfected with PR-39 constructs; anti-PR-39 antibody
T2 construct: endogenous in cells; host or cells: ECV304 cells stably expressing porcine PR-39 constructs
Description: In order to confirm that PR-39 and the a7 subunit interact in cells, a polyclonal anti-PR-39 antibody was used to immunoprecipitate PR-39 protein from EVC304 cells transfected with cDNA constructs corresponding either to the full length (EVC-PR-39) or exon 4 (39 amino acid C-terminal domain) (ECV-E4) of the porcine PR-39 gene.
Full-length porcine cDNA (containing the leader sequence) and a cDNA construct corresponding to the 4th exon of porcine PR-39 gene were cloned into eukaryotic expression vector pGRE5-2 (USB) and used to stably transfect an immortalized human endothelial cell line (ECV304, ATCC). For co-immunoprecipitation, wild type ECV, full-length PR-39 (ECV-PR-39) and exon 4 PR-39 (ECV-E4) transfected cells were cultured in 10% FBS-M199. Cells were lysed with the RIPA buffer, and equal amounts of total protein were pre-cleared with non-immune rabbit serum and protein G plus/protein A-agarose beads (Calbiochem). The cleared samples were incubated at 4° C. overnight with 20 μl of polyclonal anti-PR-39 antibody and 40 μl of protein G plus/protein A-agarose beads or with the beads alone. […]

RRRPRPPYLPRPRPPPFFPPRLPPRIPPGFPPRFPPRFP [PR-39]
inhibition of total cell protein degradation [1]: little or no effect | TNF-α induced increase in luciferase activity [2]: completely blocked | levels of p21, cyclin E and c-fos ([3]; ECV304 cells): failed to demonstrate any effect | proteasome-mediated degradation of p21, cyclin E and c-fos ([3]; U937 cells pretreated with various amounts, then TNF-α 1 ng/ml): lack of PR-39 dependent inhibition | IκBα-VCP binding [4]: does not inhibit IκBα-VCP binding | IκBα in mouse pancreas (Western blotting) [5]: preservation of IκBα | amount of phosphorylated IκBα [6]: increased the amount of the phosphorylated form of IκBα | binding to 20S proteasome (co-immunoprecipitation of α7 and α2 subunits) [7]: can bind to the 20S proteasome particle via an interaction with the a7 subunit
